Data: patent US11976083B2, “Inhibitors of peptidylarginine deiminases” (Gilead Sciences, Inc., priority 2020, dated 2024)

Molecular target: T1, human PAD4 (Homo sapiens, UniProt Q9UM07)
T1 construct: human PAD4 (NM_012387), A2-P663, was PCR amplified; His-SUMO (N, cleaved yes); made in house; host or cells: E. coli BL21(DE3)
Assay: In vitro PAD4 BAEE biochemical assay
Details: BAEE substrate 3 mM, 5 nM PAD4, 2 mM calcium chloride; geometric mean of multiple experiments
Outline: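 Fluorescence read-out (ex 405/em 535 nm) of isoindole formed from ammonia, o-phthalaldehyde and DTT after EDTA stop. Reaction: 5 nM PAD4, 2 mM CaCl2, 3 mM BAEE, 2 h, 25 °C, after 30 min enzyme–compound preincubation. Normalised to BB-Cl-Amidine (50 µM) and DMSO controls.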

T1 sequence (Q9UM07 2-663): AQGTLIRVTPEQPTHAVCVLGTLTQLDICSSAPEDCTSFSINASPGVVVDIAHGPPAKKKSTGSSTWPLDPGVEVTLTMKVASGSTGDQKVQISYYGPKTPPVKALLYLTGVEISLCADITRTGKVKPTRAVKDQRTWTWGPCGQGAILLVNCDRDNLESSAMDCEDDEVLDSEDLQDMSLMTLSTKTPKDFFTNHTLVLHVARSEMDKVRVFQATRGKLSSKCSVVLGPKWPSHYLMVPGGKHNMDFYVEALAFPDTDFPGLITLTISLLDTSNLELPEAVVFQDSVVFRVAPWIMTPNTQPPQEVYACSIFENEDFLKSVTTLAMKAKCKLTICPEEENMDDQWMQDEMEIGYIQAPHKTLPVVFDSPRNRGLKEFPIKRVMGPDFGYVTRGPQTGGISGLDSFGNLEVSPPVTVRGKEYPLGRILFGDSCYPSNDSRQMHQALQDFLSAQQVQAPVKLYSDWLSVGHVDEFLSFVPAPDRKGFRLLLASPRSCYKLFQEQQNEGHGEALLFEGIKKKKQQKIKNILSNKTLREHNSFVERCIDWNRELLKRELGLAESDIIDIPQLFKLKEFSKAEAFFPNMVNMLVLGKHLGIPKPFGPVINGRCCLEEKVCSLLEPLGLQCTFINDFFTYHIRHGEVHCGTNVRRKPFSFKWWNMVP

| SMILES | IC50 |
| --- | --- |
| C[C@H]1NC(=O)C(C)(C)CCCCCCn2c(-c3nc4cc(C(=O)N[C@H]5CNCC[C@@H]5F)c(F)c(F)c4n3C)cc3ccc1nc32 [Example 538, 6,7-difluoro-~{N}-[(3~ {S},4~{S})-4-fluoro-3-piperidyl]-1-methyl-2-[(11~{R})-8,8,11-trimethyl-9-oxo-1,10,19-triazatricyclo[10.5.2.0^ {15,18}]nonadeca-12(19),13,15(18),16-tetraen-17-yl]benzimidazole-5-carboxamide] | 0.09 µM |
| COc1cc(C(=O)N2C[C@H]3CCCN[C@H]3C2)cc2nc(-c3cc4ccc5nc4n3CCCCCCC(C)(C)C(=O)N[C@@H]5C)n(C)c12 [Example 80, (11~{R})-17-[5-[(4~{a}~{R},7~{a}~{R})-1,2,3,4,4~{a},5,7,7~{a}-octahydropyrrolo[3,4-b]pyridine-6-carbonyl]-7-methoxy-1-methyl-benzimidazol-2-yl]-8,8,11-trimethyl-1,10,19-triazatricyclo[10.5.2.0^{15,18}]nonadeca-12(19),13,15(18),16-tetraen-9-one] | 0.255 µM |
| COc1cc(C(=O)N2CCC[C@@H](N)C2)cc2nc(-c3cc4ccc5nc4n3C[C@H]3C[C@@H]3[C@H](C)OCCC(=O)N[C@@H]5C)n(C)c12 [Example 161, (3~{S},5~{S},6~{S},12~{R})-18-[5-[(3~{R})-3-aminopiperidine-1-carbonyl]-7-methoxy-1-methyl-benzimidazol-2-yl]-6,12-dimethyl-7-oxa-1,11,20-triazatetracyclo[11.5.2.0^{3,5}.0^{16,19}] icosa-13(20),14,16(19),17-tetraen-10-one] | 0.108 µM |
| COc1cc(C(=O)N2[C@H]3CC[C@@H]2[C@H](N)C3)cc2nc(-c3cc4ccc5nc4n3CCCCCCCC3(CC3)C(=O)N[C@@H]5C)n(C)c12 [Example 281, (12~{R})-18-[5-[(1~{R},2~{R},4~{S})-2-amino-7-azabicyclo[2.2.1]heptane-7-carbonyl]-7-methoxy-1-methyl-benzimidazol-2-yl]-12-methyl-spiro[1,11,20-triazatricyclo[11.5.2.0^{16,19}]icosa-13(20),14,16(19),17-tetraene-9,1′-cyclopropane]-10-one] | 0.088 µM |
| CO[C@@H]1CCN(C(=O)c2cc(F)c3c(c2)nc(-c2cc4ccc5nc4n2CCCCCC[C@H](c2cccc(Cl)n2)C(=O)N[C@@H]5C)n3C2CC2)C[C@@H]1N [Example 872, (8~{R},11~{R})-17-[5-[(3~ {S},4~{R})-3-amino-4-methoxy-piperidine-1-carbonyl]-1-cyclopropyl-7-fluoro-benzimidazol-2-yl]-8-(6-chloro-2-pyridyl)-11-methyl-1,10,19-triazatricyclo[10.5.2.0^ {15,18}]nonadeca-12(19), 13,15(18),16-tetraen-9-one] | 0.09 µM |
| COc1cc(C(=O)N2[C@H]3CC[C@@H]2[C@H](N)C3)cc2nc(-c3cc4ccc5nc4n3CCCCCCC(=O)Nc3ncccc3-5)n(C)c12 [Example 84, 17-[5-[(1~{R},2~{R},4~{S})-2-amino-7-azabicyclo[2.2.1]heptane-7-carbonyl]-7-methoxy-1-methyl-benzimidazol-2-yl]-6,8,16,22-tetrazatetracyclo[14.5.2.0^{2,7}.0^{19,23}] tricosa-1(22),2,4,6,17,19(23),20-heptaen-9-one] | 0.089 µM |
| COc1cc(C(=O)N2CC[C@@H](OCC(F)F)[C@@H](N)C2)cc2nc(-c3cc4ccc5nc4n3CCCCC[C@@H]3C[C@H]3C(=O)N[C@@H]5C)n(C)c12 [Example 489, (2~{R},5~{R}, 7~{R})-14-[5-[(3~{S},4~{R})-3-amino-4-(2,2-difluoroethoxy)piperidine-1-carbonyl]-7-methoxy-1-methyl-benzimidazol-2-yl]-2-methyl-3,13,19-triazatetracyclo [11.5.2.0^{5,7}.0^{16,20}] icosa-1(19),14,16(20), 17-tetraen-4-one] | 0.078 µM |
| COc1cc(C(=O)N2CC[C@@H](OC)[C@@H](N)C2)cc2nc(-c3cc4ccc5nc4n3CCCCCc3nccnc3C(=O)N[C@@H]5C)n(C)c12 [Example 240, (2~{R})-17-[5-[(3~{S),4~{R})-3-amino-4-methoxy-piperidine-1-carbonyl]-7-methoxy-1-methyl-benzimidazol-2-yl]-2-methyl-3,6,9,16,22-pentazatetracyclo[14.5.2.0^{5,10}.0^{19, 23}]tricosa-1(21),5(10),6,8,17,19,22-heptaen-4-one] | 0.137 µM |
| COc1cc(C(=O)N2CC[C@@H](OC)[C@@H](N)C2)cc2nc(-c3cc4ccc5nc4n3Cc3ccccc3C/C=C/CC(=O)N[C@@H]5C)n(C)c12 [Example 239, (10~{E},15~{R})-21-[5-[(3~{S},4~{R})-3-amino-4-methoxy-piperidine-1-carbonyl]-7-methoxy-1-methyl-benzimidazol-2-yl]-15-methyl-1,14,23-triazatetracyclo[14.5.2.0^{3,8}.0^{19,22}] tricosa-3(8),4,6,10,16,18,20,22-octaen-13-one] | 0.583 µM |
| COc1cc(C(=O)N2[C@H]3CC[C@@H]2[C@H](N)C3)cc2nc(-c3cc4ccc5nc4n3CC[C@H]3C[C@H]3COCCC(=O)N[C@@H]5C)n(C)c12 [Example 338, (4~{R},6~{R},13~{R})-19-[5-[(1~{R},2~{R},4~{S})-2-amino-7-azabicyclo[2.2.1]heptane-7-carbonyl]-7-methoxy-1-methyl-benzimidazol-2-yl]-13-methyl-8-oxa-1,12,21-triazatetracyclo[12.5.2.0^{4,6}.0^{17,20}] henicosa-14(21),15,17(20),18-tetraen-11-one] | 0.053 µM |

These reach a lower IC50. Values come first.

| IC50 | SMILES |
| --- | --- |
| 0.047 µM | COCCn1c(-c2cc3ccc4nc3n2CCCCC[C@@H]2C[C@H]2C(=O)N[C@@H]4C)nc2cc(C(=O)N[C@H]3CNCC[C@@H]3F)c(F)c(F)c21 [Example 559, 6,7-difluoro-~{N}-[(3~{S},4~{S})-4-fluoro-3-piperidyl]-1-(2-methoxyethyl)-2-[(2~{R},5~{R},7~ {R})-2-methyl-4-oxo-3,13,19-triazatetracyclo [11.5.2.0^{5,7}.0^{16,20}]icosa-1(19),14,16(20), 17-tetraen-14-yl] benzimidazole-5-carboxamide] |
| 0.038 µM | C[C@H]1NC(=O)c2ccncc2CCCCCn2c(-c3nc4cc(C(=O)N[C@H]5CNCC[C@@H]5F)c(F)cc4n3C)cc3ccc1nc32 [Example 350, 6-fluoro-~{N}-[(3~{S},4~{S})-4-fluoro-3-piperidyl]-1-methyl-2-[(2~{R})-2-methyl-4-oxo-3,8,16,22-tetrazatetracyclo[14.5.2.0^{5,10}.0^{19,23}]tricosa-1(22),5,7,9,17,19(23),20-heptaen-17-yl]benzimidazole-5-carboxamide] |
| 0.036 µM | COc1cc(C(=O)N2C[C@H]3CC[C@@H]2[C@@H]3N)cc2nc(-c3cc4ccc5nc4n3CCCCCCCC(=O)N[C@@H]5C)n(C)c12 [Example 288, (11~{R})-17-[5-[(1~{R},4~{R},7~{R})-7-amino-2-azabicyclo[2.2.1]heptane-2-carbonyl]-7-methoxy-1-methyl-benzimidazol-2-yl]-11-methyl-1,10,19-triazatricyclo[10.5.2.0^{15,18}]nonadeca-12(19),13,15(18),16-tetraen-9-one] |
| 0.031 µM | [2H]C([2H])([2H])O[C@@H]1CCN(C(=O)c2cc(OC)c3c(c2)nc(-c2cc4ccc5nc4n2CC(F)(F)CCC[C@@H]2C[C@H]2C(=O)N[C@@H]5C)n3C)C[C@@H]1N [Example 637, (2~{R},5~{R},7~{R})-14-[5-[(3~{S},4~{R})-3-amino-4-(trideuteriomethoxy)piperidine-1-carbonyl]-7-methoxy-1-methyl-benzimidazol-2-yl]-11,11-difluoro-2-methyl-3,13,19-triazatetracyclo[11.5.2.0^ {5,7}.0^{16,20}] icosa-1(19),14,16(20), 17-tetraen-4-one] |
| 0.02 µM | COc1cc(C(=O)N2C[C@H](N)C[C@@H](F)C2)cc2nc(-c3cc4ccc5nc4n3CC(F)(F)CCC[C@@H]3C[C@H]3C(=O)N[C@@H]5C)n(C)c12 [Example 851, (2~{R},5~{R},7~{R})-14-[5-[(3~{R},5~{R})-3-amino-5-fluoro-piperidine-1-carbonyl]-7-methoxy-1-methyl-benzimidazol-2-yl]-11,11-difluoro-2-methyl-3,13,19-triazatetracyclo[11.5.2.0^ {5,7}.0^{16,20}]icosa-1(19), 14,16(20),17-tetraen-4-one] |
| 0.02 µM | C[C@H]1NC(=O)c2c(ccnc2C2CC2)CCCCCn2c(-c3nc4cc(C(=O)N5C[C@H](N)[C@@H]6CC[C@H]5C6)cc(F)c4n3C3CC3)cc3ccc1nc32 [Example 671, (2~{R})-17-[5-[(1~{S),4~ {R},5~{R})-4-amino-2-azabicyclo[3.2.1]octane-2-carbonyl]-1-cyclopropyl-7-fluoro-benzimidazol-2-yl]-6-cyclopropyl-2-methyl-3,7,16,22-tetrazatetracyclo [14.5.2.0^{5,10}.0^{19,23}] tricosa-1(22),5(10),6,8,17, 19(23),20-heptaen-4-one] |
| 0.012 µM | COc1cc(C(=O)N2C[C@H](N)[C@@H]3CC[C@H]2C3)cc2nc(-c3cc4ccc5nc4n3CCCCCc3cc(Cl)ncc3C(=O)N[C@@H]5C)n(C3CC3)c12 [Example 818, (2~{R})-17-[5-[(1~{S},4~{R}, 5~{R})-4-amino-2-azabicyclo[3.2.1]octane-2-carbonyl]-1-cyclopropyl-7-methoxy-benzimidazol-2-yl]-8-chloro-2-methyl-3,7,16,22-tetrazatetracyclo[14.5.2.0^ {5,10).0^{19,23}]tricosa-1(21),5(10),6,8,17,19,22-heptaen-4-one] |
| 0.006 µM | C[C@@H]1[C@H](N)CCCN1C(=O)c1cc(Cl)c2c(c1)nc(-c1cc3ccc4nc3n1CC(F)(F)CCC[C@@H]1C[C@H]1C(=O)N[C@@H]4C)n2C1CC1 [Example 805, (2~{R},5~{R},7~{R})-14-[5-[(2~{R},3~{R})-3-amino-2-methyl-piperidine-1-carbonyl]-7-chloro-1-cyclopropyl-benzimidazol-2-yl]-11,11-difluoro-2-methyl-3,13,19-triazatetracyclo[11.5.2.0^ {5,7}.0^{16,20}]icosa-1(18),14,16,19-tetraen-4-one] |
